{"source": "ChEMBL document CHEMBL3044560", "about": "“Microwave-assisted synthesis and antimicrobial activity of some imidazo[2,1-b][1,3,4]thiadiazole derivatives” (2012)", "key": {"[1]": {"test_system": "Candida albicans", "test": "Antimicrobial activity against Candida albicans at 30 ug/ml after 72 hr by cup-plate method", "format": "functional", "details": "read-out: IZ"}, "[2]": {"test_system": "Candida albicans", "test": "Antimicrobial activity against Candida albicans at 5 ug/ml after 72 hr by cup-plate method", "format": "functional", "details": "read-out: IZ"}, "[3]": {"test_system": "Candida albicans", "test": "Antimicrobial activity against Candida albicans at 50 to 70 ug/ml after 72 hr by cup-plate method", "format": "functional, organism-based"}, "[4]": {"test_system": "Staphylococcus aureus", "test": "Antimicrobial activity against Staphylococcus aureus at 75 ug/ml after 24 hr by cup-plate method", "format": "functional"}, "[5]": {"test_system": "Klebsiella", "test": "Antimicrobial activity against Klebsiella at 10 ug/ml after 24 hr by cup-plate method", "format": "functional", "details": "read-out: IZ"}, "[6]": {"test_system": "Staphylococcus aureus", "test": "Antimicrobial activity against Staphylococcus aureus at 10 ug/ml after 24 hr by cup-plate method", "details": "read-out: IZ"}, "[7]": {"test_system": "Klebsiella", "test": "Antimicrobial activity against Klebsiella at 50 ug/ml after 24 hr by cup-plate method", "format": "functional"}, "[8]": {"test_system": "Candida albicans", "test": "Antimicrobial activity against Candida albicans at 50 ug/ml after 72 hr by cup-plate method", "format": "functional", "details": "read-out: IZ"}}, "note": "Active and inactive are the calls of the source. The calls are words filed in the database; no cut-off is given here.", "data": [{"smiles": "OC(Cn1cncn1)(Cn1cncn1)c1ccc(F)cc1F", "note": "[FLUCONAZOLE]", "values": [{"measurement": "zone of inhibition at 30 µg/mL", "setting": "[1]", "value": 22, "unit": "mm"}]}, {"smiles": "O=[N+]([O-])c1ccc(Cc2nn3cc(-c4ccc(Br)cc4)nc3s2)cc1", "values": [{"measurement": "zone of inhibition at 5 µg/mL", "setting": "[2]", "value": 14, "unit": "mm"}, {"measurement": "inhibition zone (IZ)", "setting": "[3]", "value": "inactive"}, {"measurement": "inhibition zone (IZ)", "setting": "[4]", "value": "inactive"}]}, {"smiles": "O=C(O)c1cn(C2CC2)c2cc(N3CCNCC3)c(F)cc2c1=O", "note": "[CIPROFLOXACIN]", "values": [{"measurement": "zone of inhibition at 10 µg/mL", "setting": "[5]", "value": 28, "unit": "mm"}, {"measurement": "zone of inhibition at 10 µg/mL", "setting": "[6]", "value": 28, "unit": "mm"}]}, {"smiles": "O=[N+]([O-])c1ccc(Cc2nn3cc(-c4ccc(F)cc4)nc3s2)cc1", "values": [{"measurement": "inhibition zone (IZ)", "setting": "[7]", "value": "inactive"}, {"measurement": "zone of inhibition at 50 µg/mL", "setting": "[8]", "value": 22, "unit": "mm"}, {"measurement": "inhibition zone (IZ)", "setting": "[4]", "value": "inactive"}]}]}
